The source of these data is US11066386B2, “CGRP receptor antagonists” (Eli Lilly and Company, priority 2017, dated 2021).

Data set [1] in a line: Rat plasma and brain homogenate protein binding by equilibrium dialysis. The format is in vitro ADME. As to the method:
Determination of plasma and brain protein binding: Rat plasma and brain homogenate protein in vitro binding is determined using equilibrium dialysis, as described elsewhere [Zamek-Gliszczynski et al., J Pharm Sci, 101:1932-1940, 2012]. The results are reported as fraction unbound in plasma (fu,plasma) and brain (fu,brain), which are then utilized to calculate Kp,uu,brain, as described in Table 2. Rat fu,plasma and fu,brain of the compound of Example 1 are determined to be 0.277 and 0.126, respectively.

For data set [2], the target named is T1, ABCB1, Human P-Glycoprotein (Pgp) (Homo sapiens, UniProt P08183).
T1 construct: host or cells: MDCKII cells
Put plainly: In vitro determination of efflux by Pgp, bi-directional transport across MDCKII cells. The settings on record: MDCKII cells expressing human ABCB1, 5 μM substrate, 60 min. The format is in vitro ADME. As to the method: In Vitro Determination of Efflux by ABCB1, Human P-Glycoprotein (Pgp)
Cell Culture: MDCKII cells stably expressing human wild-type ABCB1 (Pgp) are obtained from the Netherlands Cancer Institute (Amsterdam, The Netherlands). MDCK cells are maintained as described previously (Desai et al., Mol Pharm 10:1249-1261, 2013).
Bi-directional transport across MDCK cells: The assay is essentially conducted as described previously (Desai et al., Mol Pharm 10:1249-1261, 2013). Transport is measured in both directions across uninhibited and inhibited cell monolayers using a substrate concentration of 5 μM diluted from a 10 mM DMSO stock solution (final DMSO concentration of 0.05%) and a single 60-min time interval. […] The apparent permeability coefficients (Papp) are estimated as the slope of the mass transported per 60 min relative to the total recovered mass. The basal-to-apical (B-A)/apical-to-basal (A-B) Papp ratios are calculated in the absence or presence of inhibitor in each cell line for net efflux ratio (NER).

In data set [3] the target is T2, hCGRP (human calcitonin gene-related peptide) receptor (Homo sapiens, UniProt O60894+Q16602).
T2 construct: Cultured SK-N-MC neuroblastoma cells that endogenously express the hCGRP receptor (ATCC); host or cells: SK-N-MC neuroblastoma cells
Put plainly: Inhibition of cAMP production by CGRP receptor antagonists (HTRF) in SK-N-MC cells. The class given is cell-based. The settings on record: human CGRP 0.8 nM as agonist, mean ±SEM, n=16, read-out: Kb measured at human CGRP. The text has this: Inhibition of cAMP Production by CGRP Receptor Antagonists
The hCGRP (human calcitonin gene-related peptide) receptor is functionally coupled to the Gas proteins. Stimulation of hCGRP results in an increased synthesis of intracellular cAMP and can be blocked by the addition of receptor antagonists. Receptor activity is thus a reflection of the amount of cAMP present within cells which can be detected using standard in vitro technology. […]
Data Analysis: The amount of intracellular cAMP is quantitated using HTRF technology (Cisbio) as per vendor instructions. […] The HTRF signal is immediately detected using an ENVISION® plate reader (Perkin-Elmer) to calculate the ratio of fluorescence at […]. […] Relative EC50 values are calculated from the top-bottom range of the concentration response curve using a four-parameter logistic curve fitting program (ACTIVITYBASE® v5.3.1.22 or GENEDATA SCREENER® v12.0.4), and Kb values are estimated as agonist-corrected IC50 values using the equation: Kb=(IC50)[1+([Agonist]/EC50)]. […]

A short description of data set [4]: In vivo determination of unbound brain-to-plasma partition coefficient (Kp,uu,brain) in rats. The settings on record: 10 mg/kg oral; for concentration at 0.5 h / concentration at 2 h: male, Sprague-Dawley, oral, 10 mg/kg. As to the method:
In Vivo Determination of Unbound Brain-to-Plasma Partition Coefficient (Kp,uu,brain) in Rats
Unbound brain-to-plasma partition coefficient (Kp,uu,brain) is one of the key pharmacokinetic parameter for evaluating a compound's ability to cross the blood-brain barrier (BBB) (Hammarlund-Udenaes, M.; Friden, M.; Syvanen, S.; Gupta, A. On the Rate and Extent of Drug Delivery to the Brain. Pharm. Res. 2008, 25 (8), 1737-1750).
Study populations: Animal studies are performed under protocols approved by the Covance Institutional Animal Care and Use Committee. Male Sprague-Dawley rats weighing 250-350 g are obtained from Harlan Sprague Dawley Inc. (Indianapolis, Ind.). Animals have access to food and water ad libitum before and during the study.
Dose administration: Animals each receive 10 mg/kg of the CGRP receptor antagonist compound of Example 1, administered orally in 10 ml/kg of hydroxyethylcellulose 1% w/v/polysorbate 80 0.25% v/v/Antifoam 1510-US 0.05% v/v/in purified water (probe sonicated).
Pharmacokinetic sampling: Three animals per time point are used. The blood (by cardiac puncture) and brain samples are collected at 0.5 and 2 h post dose. The blood samples are treated with K3-EDTA anticoagulant, and plasma is obtained by centrifugation at 1600 g for 10 minutes. The brain samples are weighed and homogenized, without perfusion. All samples are stored at −70° C. until analysis by LC-MS/MS to determine the concentration of the compound of Example 1 in plasma and brain at each time point.
Kp,uu,brain is calculated for each time point from the expression below where individual components are derived from a combination of in vitro and in vivo measurements carried out as described above:
[formula] where Ctotal,brain, Cu,brain, Ctotal,plasma and Cu,plasma are total and unbound brain and plasma concentrations, and fu,brain and fu,plasma are fractions unbound in brain and plasma, respectively.

The structures appear in SMILES notation. Where two headings read alike, the source gives them in different places.

T1 sequence (P08183 whole entry): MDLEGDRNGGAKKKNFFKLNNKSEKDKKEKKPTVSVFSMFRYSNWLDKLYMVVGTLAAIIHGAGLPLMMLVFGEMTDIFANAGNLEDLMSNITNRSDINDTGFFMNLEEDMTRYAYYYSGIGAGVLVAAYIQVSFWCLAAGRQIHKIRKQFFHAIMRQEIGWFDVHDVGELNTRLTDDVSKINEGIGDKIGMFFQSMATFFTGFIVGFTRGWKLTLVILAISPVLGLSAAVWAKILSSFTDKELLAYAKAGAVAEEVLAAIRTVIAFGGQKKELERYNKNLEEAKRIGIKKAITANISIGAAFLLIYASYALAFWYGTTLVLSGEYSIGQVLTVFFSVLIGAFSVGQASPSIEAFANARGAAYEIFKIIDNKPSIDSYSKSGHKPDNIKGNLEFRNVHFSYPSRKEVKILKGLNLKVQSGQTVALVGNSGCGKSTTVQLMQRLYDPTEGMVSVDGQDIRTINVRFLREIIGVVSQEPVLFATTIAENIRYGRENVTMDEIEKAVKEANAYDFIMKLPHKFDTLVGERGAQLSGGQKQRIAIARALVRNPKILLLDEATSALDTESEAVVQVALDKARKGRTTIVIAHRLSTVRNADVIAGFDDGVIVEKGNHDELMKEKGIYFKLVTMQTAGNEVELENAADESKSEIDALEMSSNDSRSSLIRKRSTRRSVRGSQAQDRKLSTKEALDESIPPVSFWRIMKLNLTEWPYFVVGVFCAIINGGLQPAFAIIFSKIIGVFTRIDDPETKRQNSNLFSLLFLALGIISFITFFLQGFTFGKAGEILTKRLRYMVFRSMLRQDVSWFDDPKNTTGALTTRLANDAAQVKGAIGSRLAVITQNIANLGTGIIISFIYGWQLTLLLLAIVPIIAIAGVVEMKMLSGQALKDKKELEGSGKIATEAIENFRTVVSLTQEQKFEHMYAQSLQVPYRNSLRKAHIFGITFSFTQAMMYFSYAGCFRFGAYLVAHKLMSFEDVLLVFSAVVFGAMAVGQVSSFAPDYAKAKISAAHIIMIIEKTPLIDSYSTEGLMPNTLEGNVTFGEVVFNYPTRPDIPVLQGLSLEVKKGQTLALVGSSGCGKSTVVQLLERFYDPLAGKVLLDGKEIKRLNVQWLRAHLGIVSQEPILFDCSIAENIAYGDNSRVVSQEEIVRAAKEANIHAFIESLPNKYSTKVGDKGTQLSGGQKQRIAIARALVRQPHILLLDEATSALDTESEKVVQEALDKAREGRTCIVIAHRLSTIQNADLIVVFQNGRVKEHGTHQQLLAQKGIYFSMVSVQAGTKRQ
T2 sequence (Q16602 23-461): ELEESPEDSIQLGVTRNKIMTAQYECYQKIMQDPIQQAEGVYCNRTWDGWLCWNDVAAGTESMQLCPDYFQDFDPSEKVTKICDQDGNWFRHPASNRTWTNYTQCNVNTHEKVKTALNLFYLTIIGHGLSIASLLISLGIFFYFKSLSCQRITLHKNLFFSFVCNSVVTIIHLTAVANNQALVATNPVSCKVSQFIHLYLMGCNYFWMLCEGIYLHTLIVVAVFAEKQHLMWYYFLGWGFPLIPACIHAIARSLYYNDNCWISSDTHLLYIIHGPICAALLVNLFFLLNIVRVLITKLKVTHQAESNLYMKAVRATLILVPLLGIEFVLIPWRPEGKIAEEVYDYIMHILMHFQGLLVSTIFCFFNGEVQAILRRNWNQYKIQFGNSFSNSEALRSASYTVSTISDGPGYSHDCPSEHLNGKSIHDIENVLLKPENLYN
T2 sequence (O60894 27-148): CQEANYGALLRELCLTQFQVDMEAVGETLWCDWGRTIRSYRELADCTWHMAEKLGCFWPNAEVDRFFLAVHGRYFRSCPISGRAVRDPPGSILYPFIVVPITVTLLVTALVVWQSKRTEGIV

The term fraction unbound denotes the share of the substance not bound to proteins or other matrix. By Kb is commonly meant the affinity of an antagonist, worked out from how it opposes an agonist. For `Cc1cc(OCCc2ccc([C@@H](C)[C@]3(C)CC(=O)NC3=O)cc2)cc(C)n1` [Example 1, (3S)-3-[(1R)-1-[4-[2-[(2,6-dimethyl-4-pyridyl)oxy]ethyl]phenyl]ethyl]-3-methyl-pyrrolidine-2,5-dione], the fraction unbound in brain (fu,brain) in data set [1] (rat brain homogenate) worked out at 0.126. The fraction unbound in data set [1] (rat plasma, read-out: fraction unbound in plasma (fu,plasma)) was determined as 0.277. The “net efflux ratio (NER) for efflux by Pgp” value in data set [2] is 4.1. Also, in data set [3], the Kb was determined as 0.31 ± 0.21 nM. The “Unbound brain conc. (Cu,brain)” value in data set [4] (male Sprague-Dawley rats, 0.5 hr, using rat fu,brain 0.126, mean +/- SD) was 46 ± 9 nM; in data set [4] (male Sprague-Dawley rats, 2.0 hr, using rat fu,brain 0.126, mean +/- SD) it was 51 ± 10 nM. In addition, the concentration at 0.5 h in data set [4] (rat, brain, 0.5 hr, mean +/- SD, read-out: Total brain conc. (Ctotal,brain)) stood at 365 ± 67 nM; in data set [4] (rat, brain, 0.5 hr, using rat fu,brain 0.126, mean +/- SD, read-out: Unbound brain conc. (Cu,brain)), 46 ± 9 nM; in data set [4] (rat, plasma, 0.5 hr, mean +/- SD, read-out: Total plasma conc. (Ctotal,plasma)), 497 ± 69 nM; in data set [4] (rat, plasma, 0.5 hr, using rat fu,plasma 0.277, mean +/- SD, read-out: Unbound plasma conc. (Cu,plasma)) it was 138 ± 19 nM. For the same compound, the concentration at 2 h in data set [4] (rat, brain, 2.0 hr, mean +/- SD, read-out: Total brain conc. (Ctotal,brain)) amounted to 405 ± 83 nM; in data set [4] (rat, brain, 2.0 hr, using rat fu,brain 0.126, mean +/- SD, read-out: Unbound brain conc. (Cu,brain)), 51 ± 10 nM; in data set [4] (rat, plasma, 2.0 hr, mean +/- SD, read-out: Total plasma conc. (Ctotal,plasma)), 531 ± 129 nM; in data set [4] (rat, plasma, 2.0 hr, using rat fu,plasma 0.277, mean +/- SD, read-out: Unbound plasma conc. (Cu,plasma)), 147 ± 36 nM. Moreover, in data set [4] (rat, brain/plasma, male Sprague-Dawley rats, 0.5 hr, mean +/- SD), the Kp uu at 0.5 h came out at 0.34 ± 0.05. The Kp uu at 2 h in data set [4] (rat, brain/plasma, male Sprague-Dawley rats, 2.0 hr, mean +/- SD) was 0.35 ± 0.01.
